Data as given in ChEMBL document CHEMBL1138303, “Putative bioactive conformations of amide linked cyclic myelin basic protein peptide analogues associated with experimental autoimmune encephalomyelitis” (J Med Chem, 2007).
Activity calls are given as the source filed them. No cut-off for these calls is given here. Peptide text beside a SMILES is read from it.

Assays:
Rattus norvegicus = organism: Rattus norvegicus; experiment: Inhibition of encephalitogenic MBP(74-85)-induced encephalomyelitis in Lewis rat; assay type: functional, organism-based
[1] = Solubility per 100 uL of the compound; assay type: physicochemical

SMILES	Activity (Rattus norvegicus)	Solubility [1] [mg]
CC[C@H](C)[C@@H]1NC(=O)[C@H](CC(N)=O)NC(=O)[C@H](C)NC(=O)[C@H](Cc2ccccc2)NC(=O)[C@H](Cc2ccccc2)NC(=O)[C@H](Cc2c[nH]cn2)NC(=O)[C@H](C(C)C)NC(=O)[C@@H]2CCCN2C(=O)[C@H]([C@@H](C)O)NC(=O)[C@H](CCCNC(=N)N)NC(=O)[C@H](C)NC(=O)[C@H]([C@@H](C)O)NC(=O)[C@H](C(C)C)NC1=O (HELM PEPTIDE1{A.N.I.V.T.A.R.T.P.V.H.F.F}$PEPTIDE1,PEPTIDE1,1:R1-13:R2$$$V2.0)	Active	1.15
CC[C@H](C)[C@@H]1NC(=O)[C@H](CC(N)=O)NC(=O)[C@H](CCCNC(=N)N)NC(=O)[C@H](Cc2ccccc2)NC(=O)[C@H](Cc2ccccc2)NC(=O)[C@H](Cc2c[nH]cn2)NC(=O)[C@H](C(C)C)NC(=O)[C@@H]2CCCN2C(=O)[C@H]([C@@H](C)O)NC(=O)[C@H](CCCNC(=N)N)NC(=O)[C@H](C)NC(=O)[C@H]([C@@H](C)O)NC(=O)[C@H](C(C)C)NC1=O (HELM PEPTIDE1{A.R.T.P.V.H.F.F.R.N.I.V.T}$PEPTIDE1,PEPTIDE1,1:R1-13:R2$$$V2.0)	Active	16.25
CC[C@H](C)[C@@H]1NC(=O)[C@H](CC(N)=O)NC(=O)[C@H](CCCCN)NC(=O)[C@H](Cc2ccccc2)NC(=O)[C@H](Cc2ccccc2)NC(=O)[C@H](Cc2c[nH]cn2)NC(=O)[C@H](C(C)C)NC(=O)[C@@H]2CCCN2C(=O)[C@H]([C@@H](C)O)NC(=O)[C@H](CCCNC(=N)N)NC(=O)[C@@H]2CCCN2C(=O)[C@H]([C@@H](C)O)NC(=O)[C@H](C(C)C)NC1=O		16
